According to the NIST ThermoML archive (doi:10.1016/j.tca.2017.12.024):
± gives the expanded uncertainty stated by the source.

Tests used:
[1] = Crystal; DTA
[2] = Molar enthalpy of transition or fusion; settings: Crystal; DSC

Normal melting temperature [1] [°C]	Molar enthalpy of transition or fusion [2] [kcal/mol]	Compound
32.00 ± 3	5.97 ± 1.2	CCCCCCCCCC(=O)O [decanoic acid]
43.60 ± 3	8.43 ± 1.67	CCCCCCCCCCCC(=O)O [dodecanoic acid]
61.70 ± 3	12.6 ± 2.63	CCCCCCCCCCCCCCCC(=O)O [hexadecanoic acid]
68.40 ± 3	14.3 ± 2.87	CCCCCCCCCCCCCCCCCC(=O)O [octadecanoic acid]
54.70 ± 3	10.2 ± 2.01	CCCCCCCCCCCCCC(=O)O [tetradecanoic acid]
